According to EPA's CvTdb concentration-time database:

How the values were obtained:
Experiment in all cases: concentration in plasma after dosing
Rat [1] = conditions: dosed: Phenolphthalein, 25 mg/kg, iv, Female, F344
Rat [2] = conditions: dosed: Phenolphthalein, 25 mg/kg, iv, Male, F344
Rat [3] = conditions: dosed: Phenolphthalein, 25 mg/kg, iv, Female, F344; remark: listed apart in the source
Rat [4] = conditions: 4 h; dosed: Phenolphthalein; 25 mg/kg; iv; Male; F344
Rat [5] = conditions: dosed: Phenolphthalein, 25 mg/kg, iv, Female, F344; remark: listed apart in the source
Rat [6] = conditions: dosed: Phenolphthalein, 25 mg/kg, iv, Female, F344; remark: listed apart in the source
Rat [7] = conditions: 3 h; dosed: Phenolphthalein; 25 mg/kg; iv; Male; F344
Rat [8] = conditions: dosed: Phenolphthalein, 25 mg/kg, iv, Female, F344; remark: listed apart in the source
Rat [9] = conditions: 2.5 min; dosed: Phenolphthalein; 25 mg/kg; iv; Male; F344
Rat [10] = conditions: 2.5 min; dosed: Phenolphthalein; 25 mg/kg; iv; Male; F344; remark: listed apart in the source
Rat [11] = conditions: 1 h; dosed: Phenolphthalein; 25 mg/kg; iv; Male; F344
Rat [12] = conditions: dosed: Phenolphthalein, 25 mg/kg, iv, Female, F344; remark: listed apart in the source
Rat [13] = conditions: 16 h; dosed: Phenolphthalein; 25 mg/kg; iv; Female; F344
Rat [14] = conditions: dosed: Phenolphthalein, 25 mg/kg, iv, Female, F344; remark: listed apart in the source
Rat [15] = conditions: dosed: Phenolphthalein, 25 mg/kg, iv, Female, F344; remark: listed apart in the source
Rat [16] = conditions: dosed: Phenolphthalein, 25 mg/kg, iv, Female, F344; remark: listed apart in the source
Rat [17] = conditions: 5 min; dosed: Phenolphthalein; 25 mg/kg; iv; Male; F344
Rat [18] = conditions: dosed: Phenolphthalein, 25 mg/kg, iv, Female, F344; remark: listed apart in the source
Rat [19] = conditions: dosed: Phenolphthalein, 25 mg/kg, iv, Male, F344; remark: listed apart in the source
Rat [20] = conditions: 5 min; dosed: Phenolphthalein; 25 mg/kg; iv; Male; F344; remark: listed apart in the source
Rat [21] = conditions: 5 h; dosed: Phenolphthalein; 25 mg/kg; iv; Male; F344
Rat [22] = conditions: 16 h; dosed: Phenolphthalein; 25 mg/kg; iv; Female; F344; remark: listed apart in the source
Rat [23] = conditions: dosed: Phenolphthalein, 25 mg/kg, iv, Male, F344; remark: listed apart in the source
Rat [24] = conditions: dosed: Phenolphthalein, 25 mg/kg, iv, F344
Rat [25] = conditions: dosed: Phenolphthalein, 25 mg/kg, iv, Female, F344; remark: listed apart in the source
Rat [26] = conditions: dosed: Phenolphthalein, 25 mg/kg, iv, Female, F344; remark: listed apart in the source
Rat [27] = conditions: dosed: Phenolphthalein, 25 mg/kg, iv, Male, F344; remark: listed apart in the source
Rat [28] = conditions: dosed: Phenolphthalein, 25 mg/kg, iv, Female, F344; remark: listed apart in the source
Rat [29] = conditions: dosed: Phenolphthalein, 25 mg/kg, iv, Female, F344; remark: listed apart in the source
Rat [30] = conditions: 5 h; dosed: Phenolphthalein; 25 mg/kg; iv; Male; F344; remark: listed apart in the source
Rat [31] = conditions: 3 h; dosed: Phenolphthalein; 25 mg/kg; iv; Male; F344; remark: listed apart in the source

O=C1OC(c2ccc(O)cc2)(c2ccc(O)cc2)c2ccccc21 [Phenolphthalein]
Conditions	concentration in plasma [ng/mL]
Rat [1], 2.5 min	167000
Rat [1], 20 h	17.4
Rat [2], 1 h	2380
Rat [2], 6 h	199
Rat [3], 5 h	58.5
Rat [3], 10 h	17.4
Rat [5], 3 h	153
Rat [5], 12 h	26.7
Rat [6], 2 h	261
Rat [6], 8 h	43.2
Rat [8], 1 h	841
Rat [8], 6 h	290
Rat [12], 4 h	47.5
Rat [12], 7 h	15.5
Rat [14], 3 h	336
Rat [14], 12 h	96
Rat [15], 2.5 min	164000
Rat [15], 20 h	22
Rat [16], 5 min	5180
Rat [16], 24 h	69.4
Rat [18], 5 h	56.9
Rat [18], 10 h	70.2
Rat [19], 2 h	662
Rat [19], 8 h	83.6
Rat [23], 4 h	366
Rat [23], 7 h	63
Rat [25], 1 h	1400
Rat [25], 6 h	392
Rat [26], 5 min	52100
Rat [26], 24 h	23
Rat [27], 2 h	636
Rat [27], 8 h	110
Rat [28], 4 h	127
Rat [28], 7 h	36.5
Rat [29], 2 h	261
Rat [29], 8 h	46.7

Conditions	concentration in plasma [ng/mL]
Rat [4]	25.1
Rat [7]	94.5
Rat [9]	216000
Rat [10]	219000
Rat [11]	1990
Rat [13]	20.3
Rat [17]	58300
Rat [20]	58500
Rat [21]	19.1
Rat [22]	24.5
Rat [30]	552
Rat [31]	561

concentration in plasma [ng/mL], Rat [24]
Conditions	Female	Male
1 h	1090	1790
2 h	259	592
2.5 min	115000	195000
3 h	290	43.2
4 h	173	317
5 h	105	691
5 min	52300	51000
6 h	89.9	59.4
7 h	56.9	248
8 h	32.4	274
10 h	45.5	42.3
12 h	98.5	–
16 h	120	20.2
20 h	18.6	–
24 h	60.2	–
